From ChEMBL document CHEMBL1149871, “Structure and conformational dynamics of trichothecene mycotoxins” (J Nat Prod, 2008)

Key:
Mus musculus = assay: Toxicity in ip dosed mouse relative to roridin A; type: organism-based; settings: in vivo
K562 = assay: Cytotoxicity against human K562 cells by MTT assay; type: functional, cell-based
[1] = Toxicity in mouse CD4+ T cells assessed as induction of IL5 at 1000 ng/ml; type: cell-based; settings: t-cell
[2] = Toxicity in mouse CD4+ T cells assessed as induction of IL5 at 500 ng/ml; type: cell-based; settings: t-cell
[3] = Toxicity in mouse CD4+ T cells assessed as induction of IL5 at 0.05 ng/ml; type: cell-based; settings: t-cell
[4] = Toxicity in mouse CD4+ T cells assessed as induction of IL5 at 1.0 ng/ml; type: cell-based; settings: t-cell
[5] = Toxicity in ip dosed mouse; type: organism-based; settings: in vivo
[6] = Toxicity in mouse CD4+ T cells assessed as induction of IL5 at 100 ng/ml; type: cell-based; settings: t-cell

Row | SMILES | Activity (Mus musculus) | EC50 (K562) [nM] | other results
1 | CC(=O)OC[C@]12C[C@H](OC(=O)CC(C)C)C(C)=C[C@H]1O[C@@H]1[C@H](O)[C@@H](O)[C@@]2(C)[C@]12CO2 [HT-2 TOXIN] | 9 | 47.1 | –
2 | CC1=C[C@H]2O[C@@H]3C[C@@H]4OC(=O)/C=C/C=C/COCC/C([C@@H](O)[C@H](C)O)=C/C(=O)OC[C@@]2(CC1)[C@]4(C)[C@]31CO1 [SATRATOXIN H] | 1 | – | –
3 | CC(=O)O[C@@H]1C[C@]2(C)[C@@]3(CO)[C@H](O)C(=O)C(C)=C[C@H]3O[C@H]1[C@@]21CO1 [3-ACETYLDEOXYNIVALENOL] | – | – | Activity [1]: Toxic
4 | CC(=O)OC[C@]12[C@H](O)C(=O)C(C)=C[C@H]1O[C@@H]1[C@H](O)C[C@@]2(C)[C@]12CO2 [15-ACETYLDEOXYNIVALENOL] | – | – | Activity [2]: Toxic
5 | CC1=C[C@H]2O[C@@H]3C[C@H]4OC(=O)/C=C\C=C\C(=O)OCC[C@@H](C)[C@H](O)C(=O)OC[C@@]2(CC1)[C@]4(C)[C@]31CO1 [VERRUCARIN A] | 1.5 | – | Activity [3]: Toxic
6 | CC(=O)OC[C@]12CCC(C)=C[C@H]1O[C@@H]1[C@H](O)[C@@H](OC(C)=O)[C@@]2(C)[C@]12CO2 [ANGUIDIN] | 23 | 2.7 | –
7 | CC(=O)OC[C@]12C[C@H](OC(=O)CC(C)C)C(C)=C[C@H]1O[C@@H]1[C@H](O)[C@@H](OC(C)=O)[C@@]2(C)[C@]12CO2 [T-2 TOXIN] | 3 | 2.1 | Activity [4]: Toxic
8 | CC(=O)OC[C@]12C[C@H](O)C(C)=C[C@H]1O[C@@H]1[C@H](O)[C@@H](OC(C)=O)[C@@]2(C)[C@]12CO2 [NEOSOLANIOL] | 0.5 | 392 | –
9 | CC1=C[C@H]2O[C@@H]3[C@H](O)[C@@H](O)[C@](C)([C@@]2(CO)[C@H](O)C1=O)[C@]31CO1 [NIVALENOL] | – | 960 | LD50 [5]: 4.1 mg/kg; Activity [6]: Toxic
10 | CC1=C[C@H]2O[C@@H]3[C@H](O)C[C@](C)([C@@]2(CO)[C@H](O)C1=O)[C@]31CO1 [DEOXYNIVALENOL] | 4 | 1010 | LD50 [5]: 70 mg/kg; Activity [6]: Toxic
